Measurements from patent publication US5965701A, “Kappa receptor opioid peptides” (priority 1997, dated 1999).
“And” between values parts separate entries of the source, which are not always exact repeats. Equal values may be shown once. Where a SMILES comes first, the peptide text is derived from it. [ ]: non-standard residue; d: D form. The star is where a group is joined. NH(4-picolyl) = c1cc(CN*)ccn1; dNle = CCCC[C@@H](N)C(=O)O; Morpholide = C1CN(*)CCO1; NEt2 = CCN(CC)*; NHcPr = C1CC1N*

Experiments:
conscious male ICR mice = test: Mouse acetic acid writhing test (WT); type: in vivo; settings: for WT-ED50: i.v., 5 minutes before acetic acid i.p., writhes over 15 minutes; for % Antinociception 1 hr: 60 min pretreatment; for % Antinociception 2 hr: 120 min pretreatment
Description: Selected peptides that are identified in Tables A-G have been further specifically subjected to in vivo testing for determination of duration of action of their opioid properties, and the results are reported in Table H hereinafter. The peptide numbers correspond to those in the earlier tables and the figures with regard to μ/K ratio are simply carried over for reference purposes. The in vivo testing is carried out using a mouse writhing test (WT) that is well-suited for determining the length of duration of antinociceptive biological activity. This test is described in detail in an article by G. A. Bentley et al., Br. J. Phamac., 73:325-332, 1981, and it employs conscious male ICR mice which are purchased from Harlan and which weigh between 20 and 30 grams. The mice are fasted for 12 to 16 hours prior to beginning the test. The nociceptive behavior, i.e. writhing, to be monitored is induced by the intraperitoneal (i.p.) administration of dilute acetic acid. 10 milliliters of 0.6% aqueous acetic acid is used per kg of body weight. Writhing is scored during the 15 minutes following acetic acid administration. In a first step, compounds are tested at 3 to 4 increasing doses, given by intravenous route, and at one unique pretreatment time (-5 minutes before acetic acid injection). […] In a second step, this submaximal effective dose for each specific peptide is administered at various pretreatment times (i.e. -5 minutes, -60 minutes, -120 minutes and -180 minutes) prior to the administration of the acetic acid in order to determine the duration of action. Throughout the test, a control group of mice are used which are administered only the vehicle without the candidate peptide. The number of writhes are counted over a 15-minute period, starting from the time of acetic acid injection, and bioactivity, i.e. antinociception, is expressed as a percentage, and is calculated as follows:
100×(writhes in control group-writhes in treated group)/writhes in
Values higher than 100% indicate greater antinociception than at the beginning of the experiment. It is felt that the opioid peptide should be effective to reduce writhing by at least about 25% at a time of 1 hour to be considered to have long duration of in vivo action.
In addition to using this test to determine duration of antinociceptive activity, it is also used to measure the in vivo biopotency (short term) of the peptide. This value is given in the table under the heading WT-ED50 in milligrams per kg of body weight. The value is a measure of the dosage necessary to reduce the number of writhes in the mouse being tested by 50% (as compared to a control mouse) over a period of 15 minutes.

[1] = target: T1, cloned human mu opioid (hMOR) receptor (Homo sapiens, UniProt P35372); test: Competition binding at cloned hMOR, displacement of 3H-DAMGO; settings: hMOR stably expressed in HN.9.10 cells, read-out: Ki MOR
T1 construct: expressed in transfected cells; host or cells: HN9.10 (mouse hippocampal neuroblastoma), stably transfected

[2] = target: T2, cloned human kappa (hKOR) receptor (Homo sapiens, UniProt P41145); test: biochemical; type: binding; settings: for μ/κ Ratio (binding affinity for KOR versus MOR): Ki MOR / Ki KOR; for Ki: read-out: Ki KOR
T2 construct: expressed in transfected cells; host or cells: HN9.10 (mouse hippocampal neuroblastoma), stably transfected

mouse = settings: for TF-ED50: i.v., 52° C. water, central effects; for BPI (Brain Penetration Index): mouse, in vivo, iv
[3] = submaximal effective dose i.v., percentage of the activity found at -5 min

T2 sequence (P41145 whole entry): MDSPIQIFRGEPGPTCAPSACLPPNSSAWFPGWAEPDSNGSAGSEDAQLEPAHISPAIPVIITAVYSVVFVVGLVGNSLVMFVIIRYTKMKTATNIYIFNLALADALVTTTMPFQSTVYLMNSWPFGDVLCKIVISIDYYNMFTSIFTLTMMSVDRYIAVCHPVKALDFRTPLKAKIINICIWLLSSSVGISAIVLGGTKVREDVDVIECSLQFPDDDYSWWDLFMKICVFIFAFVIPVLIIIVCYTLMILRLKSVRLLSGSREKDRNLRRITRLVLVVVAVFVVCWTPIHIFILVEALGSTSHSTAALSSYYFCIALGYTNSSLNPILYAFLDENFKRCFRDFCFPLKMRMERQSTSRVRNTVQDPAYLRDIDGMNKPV
T1 sequence (P35372 whole entry): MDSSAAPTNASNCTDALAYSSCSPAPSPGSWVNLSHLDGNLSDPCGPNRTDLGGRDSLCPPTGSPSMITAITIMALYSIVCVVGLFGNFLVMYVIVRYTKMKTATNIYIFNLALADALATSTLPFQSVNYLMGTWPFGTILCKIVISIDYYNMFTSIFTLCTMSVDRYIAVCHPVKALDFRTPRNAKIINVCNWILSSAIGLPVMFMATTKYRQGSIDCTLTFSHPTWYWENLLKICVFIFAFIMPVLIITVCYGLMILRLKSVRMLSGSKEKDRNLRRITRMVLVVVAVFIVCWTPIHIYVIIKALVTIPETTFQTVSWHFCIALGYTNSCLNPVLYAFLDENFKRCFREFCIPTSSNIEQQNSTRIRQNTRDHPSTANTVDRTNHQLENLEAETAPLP

Row | SMILES | WT-ED50 (conscious male ICR mice) | % Antinociception 1 hr (conscious male ICR mice; [3]) [%] | % Antinociception 2 hr (conscious male ICR mice; [3]) [%] | Ki [1] [nM] | μ/κ Ratio (binding affinity for KOR versus MOR) [2] | Ki [2] [nM] | TF-ED50 (mouse) [mg/kg] | BPI (Brain Penetration Index) (mouse) | % Antinociception 3 hr (conscious male ICR mice; submaximal effective dose i.v., 180 min pretreatment, percentage of the activity found at -5 min) [%]
1 | CCCC[C@@H](NC(=O)[C@@H](Cc1ccccc1)NC(=O)[C@H](N)Cc1ccccc1)C(=O)N[C@H](CCCNC(=N)N)C(=O)NC1CC1 [Peptide 5, H-D-Phe-D-Phe-D-Nle-D-Arg-NH(Cyp)] (H-[dF][dF][dNle][dR]-NHcPr) | 0.04 mg/kg | 66 | 34.5 | 3520 | 20,000 | 0.18 | 4.4 | 110 | 
2 | CCCC[C@@H](NC(=O)[C@@H](Cc1ccccc1)NC(=O)[C@H](N)Cc1ccccc1)C(=O)N[C@H](CCCNC(=N)N)C(=O)N1CCOCC1 [Peptide 6, H-D-Phe-D-Phe-D-Nle-D-Arg-Mor] (H-[dF][dF][dNle][dR]-Morpholide) | 0.014 mg/kg | 105.7 | 52.7 | 2510 | 42,000 | 0.06 | 6.4 | 457 | 
3 | CCCC[C@@H](NC(=O)[C@@H](Cc1ccccc1)NC(=O)[C@H](N)Cc1ccccc1)C(=O)N[C@H](CCCNC(=N)N)C(=O)N(CC)CC [Peptide 7, H-D-Phe-D-Phe-D-Nle-D-Arg-N(Et2)] (H-[dF][dF][dNle][dR]-NEt2) | 0.02 mg/kg and 0.020 mg/kg | 67.5 | 36.8 | 1900 | 17,000 | 0.11 | 3.1 | 155 | 
4 | CCCC[C@@H](NC(=O)[C@@H](Cc1ccccc1)NC(=O)[C@H](N)Cc1ccccc1)C(=O)N[C@H](CCCNC(=N)N)C(=O)NCc1ccncc1 [Peptide 8, H-D-Phe-D-Phe-D-Nle-D-Arg-NH(4-Pic)] (H-[dF][dF][dNle][dR]-{NH(4-picolyl)}) | 0.01 mg/kg | 66.9 | 45.1 | 3640 | 26,000 | 0.14 | 9.84 | 984 | 
5 | CC(C)C[C@@H](NC(=O)[C@@H](Cc1ccccc1)NC(=O)[C@H](N)Cc1ccccc1)C(=O)N[C@H](CCCN)C(=O)N1CCOCC1 [Peptide 57, H-D-Phe-D-Phe-D-Leu-D-Onn-Mor] | 0.026 mg/kg | 100 | 67.2 | 5260 | 28,000 | 0.19 | 5.6 | 215 | 58.2
